The NIST ThermoML archive (doi:10.1016/j.tca.2019.05.011)

Legend:
[1] = molar heat capacity at constant pressure; settings: 101.33 kPa, Liquid, Vacuum adiabatic calorimetry
[2] = Liquid, Closed cell (Static) method

CC(C)O [propan-2-ol]
Settings | molar heat capacity at constant pressure [J/K/mol] | vapor or sublimation pressure [kPa]
[1], 190 K | 111.12 | –
[1], 200 K | 112.89 | –
[1], 210 K | 115.01 | –
[1], 220 K | 117.52 | –
[1], 230 K | 120.46 | –
[1], 240 K | 123.87 | –
[1], 250 K | 127.81 | –
[1], 260 K | 132.31 | –
[1], 270 K | 137.41 | –
[1], 280 K | 143.19 | –
[1], 290 K | 149.68 | –
[1], 300 K | 156.94 | –
[1], 310 K | 165.02 | –
[1], 320 K | 173.99 | –
[1], 330 K | 183.9 | –
[2], 297.8 K | – | 5.781
[2], 303.1 K | – | 7.995
[2], 315.8 K | – | 16.22
[2], 332.1 K | – | 36.06
[2], 344.7 K | – | 63.92
